Laboratory results published in US10391150B2, “Treatments for migraine and related disorders” (The University of Chicago, priority 2011, dated 2019).
“Also recorded” adds a separate entry of the source. Like-named read-outs stand apart in the source and are kept apart here.

Key:
Assay type in all cases: cell-based, rat
[1] = test system: CA3 area evoked excitability; set-up: key to evoked excitability response rating: a normal field potential (FP; left) was rated “1”; a FP that included stimulus-related bursting activity (center) was rated “2”; a stimulus that resulted in spreading depression (right) was rated is a “3”; details: for evoked excitability versus control: H2O2 exposure
Description: FIGS. 11a-11g IGF-1 decreased CA3 oxidative stress (OS) and its related hyperexcitability. […] Relative evoked excitability was determined as a sum of responses seen (e.g., responses of “2” and a “3” yielded an overall excitability score of five). […] (FIGS. 11d-e) Exemplary images of control (FIG. 11d) slice culture OS compared to increased slice OS induced by exposure to menadione (FIG. 11e). Calibration bar, 200 Dotted boxes indicate CA3 areas of interest used for relative OS quantifications (f and g).

[2] = test system: CA3 pyramidal neuron spontaneous activity; test: Spontaneous CA3 pyramidal neuron spiking / bursting in slice cultures
Description: FIGS. 12a-12e IGF-1 increased spontaneous neuronal spiking activity. (FIG. 12a) Exemplary recording of unstimulated control CA3 pyramidal layer spontaneous electrophysiological activity. (FIG. 12b) Exemplary recording of 3-day IGF-1-exposed CA3 pyramidal layer spontaneous electrophysiological activity. […] Seven day treatments consisted of IGF-1 exposure for only 12 hours daily. Comparisons between groups made via ANOVA plus Holm-Sidak post hoc testing.

TNF-α mRNA = TNF-α mRNA after SD in slice cultures; details: two hours after SD evoked every 7-9 minutes for an hour
Text: This prompted the inventors to examine whether insulin could reduce SD susceptibility by increasing CA3 pyramidal neuron bursting. The inventors induced SD trans-synaptically in rat HSC using electrical stimuli (100 μs pulses @ 10 Hz for 1 s) ranging from 1 to 10,000 nC in order to determine SD threshold in sham and experimental groups (Pusic et al., 2011). Results were based on n≥3-6/group. […] This insulin dose approximates the pharmacological levels seen in humans treated with nasal insulin. […] The inventors hypothesized that the effect of insulin occurred through IGF-1 receptor cross-talk.
After an hour of SD, slices were allowed to recover for 2 hours and then harvested for total RNA isolation and PCR amplification of cytokine targets. […] Next, dilution curve amplifications of primers were checked to be sure primers produced uniform amplification differences. For example, optimal amplifications show a uniform increase in Ct thresholds. In contrast, amplifications are not uniform with defective primers.
These positive samples were used for PCR array screening. Next, PCR array technology was used as a means more sensitive than traditional gene chips to look for evidence of T-cells in adult hippocampal slice cultures. The gene expression screen for inflammatory cytokine changes was completed by RT^2 Profiler™ PCR Arrays.

[3] = test system: OS in microglia and astrocytes of hippocampal slice cultures; test: Cell-specific OS from SD (CellROX, confocal microscopy); details: IGF-1 100 ng/mL for three days
Text: FIG. 13 Oxidative stress from SD preferentially rises in astrocytes and microglia, with the latter effect mitigated by IGF-1. The inventors have recently shown that spreading depression (SD), the most likely cause of migraine aura and perhaps migraine (Lauritzen and Kraig, 2005), occurs with increased oxidative stress (OS) and that OS, in turn, increases SD susceptibility (Grinberg et al., 2012). Reactive oxygen and nitrogen species that cause OS have both autocrine and paracrine signaling capacities that can affect SD susceptibility by altering excitability (Kishida and Klann, 2007). Accordingly, the inventors looked for the cellular origin of OS from SD. Here the inventors used hippocampal slice cultures (HSC) to probe for cell-specific changes in OS from SD. SD was induced trans-synaptically in rat HSCs using bipolar electrical stimuli at the dentate gyrus (Pusic et al., 2011). Six SDs were induced every 7-9 min over an hr, followed by 24 hr incubation in CellROX™, a fixable fluorogenic probe for measuring OS (Grinberg et al., 2012). HSCs were then fixed in 10% buffered formalin phosphate. Other fixatives (PLP, 4% paraformaldehyde) prevented detection of OS change. Tissue was then labeled for neurons (anti-NeuN), oligodendrocytes (anti-RIP), astrocytes (anti-GFAP), or for microglia (isolectin GS-IB4). […]

Which results are given for Insulin-like growth factor 1 [IGF-1]?
evoked excitability versus control ([1]; without or with IGF-1 pretreatment for 3 days): abrogated; also recorded: non-significant difference from control; evoked excitability versus control ([1]; without or with acute IGF-1, 30 minutes after H2O2): abrogated; CA3 area evoked excitability ([1]; IGF-1 exposure alone): no significant impact; evoked excitability response rating ([1]; IGF-1 exposure alone): 1; spontaneous CA3 pyramidal neuron bursting versus control ([2]; 3-day IGF-1 treatment): increase in spontaneous CA3 pyramidal neuron bursting; spontaneous CA3 pyramidal neuron bursting versus control ([2]; 7-day IGF-1 treatment, 12 hours daily): increase in spontaneous CA3 pyramidal neuron bursting; spontaneous CA3 pyramidal neuron spiking versus control ([2]; acute IGF-1 treatment): increase in spontaneous CA3 pyramidal neuron spiking; TNF-α mRNA levels (TNF-α mRNA): did not involve a change in TNF-α mRNA levels; OS from SD in microglia [3]: decreased; astrocytic OS from SD [3]: unchanged
